# Tested on: 616215-338-R-J1-PDC complex spheroid viability
# Assay: Anticancer human tumor 616215-338-R-J1-PDC patient-derived colon adenocarcinoma cell line growth inhibition [RAS]
# Conditions: for IC50: curve of first compound; for viability, T/C: stronger effect = lower value
# In short: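 Multi-cell-type spheroids: tumor cells plus HUVEC endothelial cells and mesenchymal stem cells. RAS-pathway inhibitors were combined with targeted agents, each dosed in half-log steps down from clinical Cmax, or from 10 microM when Cmax was unknown.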
# [1] = second compound 0.00316 µM, first compound 0.0316 µM
# [2] = second compound 0.00316 µM, first compound 0.1 µM
# [3] = second compound 0.01 µM, first compound 0.0316 µM
# [4] = second compound 0.01 µM, first compound 0.1 µM
# [5] = second compound 0.0316 µM, first compound 0.0316 µM
# [6] = second compound 0.0316 µM, first compound 0.1 µM
# [7] = second compound 0.1 µM, first compound 0.0316 µM
# [8] = second compound 0.1 µM, first compound 0.1 µM
# [9] = second compound 0.316 µM, first compound 0.0316 µM
# [10] = second compound 0.316 µM, first compound 0.1 µM
# [11] = second compound 1 µM, first compound 0.0316 µM
# [12] = second compound 1 µM, first compound 0.1 µM
# 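Further: spheroids exposed to agents for seven days before viability readout.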
# 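Wherever viability, T/C is given: 100% = DMSO vehicle control viability.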
structure (smiles),measurement,setting,value
CC(C)NCC(C(=O)N1CCN(c2ncnc3c2C(C)CC3O)CC1)c1ccc(Cl)cc1 (centres undefined) + C=CC(=O)N1CCN(c2nc(OCC3CCCN3C)nc3c(F)c(-c4nc(N)cc(C)c4C(F)(F)F)c(Cl)cc23)C(C)C1,IC50,second compound 0.00316 µM,9.08 µM
same,IC50,second compound 0.01 µM,9.02 µM
same,IC50,second compound 0.0316 µM,> 10 µM
same,IC50,second compound 0.1 µM,10 µM
same,IC50,second compound 0.316 µM,9.74 µM
same,IC50,second compound 1 µM,9.55 µM
same,"viability, T/C",[1],97.1%
same,"viability, T/C",[2],110%
same,"viability, T/C","second compound 0.00316 µM, first compound 0.316 µM",106%
same,"viability, T/C","second compound 0.00316 µM, first compound 1 µM",112%
same,"viability, T/C","second compound 0.00316 µM, first compound 3.16 µM",95%
same,"viability, T/C","second compound 0.00316 µM, first compound 10 µM",45.9%
same,"viability, T/C",[3],105%
same,"viability, T/C",[4],98.1%
same,"viability, T/C","second compound 0.01 µM, first compound 0.316 µM",102%
same,"viability, T/C","second compound 0.01 µM, first compound 1 µM",116%
same,"viability, T/C","second compound 0.01 µM, first compound 3.16 µM",95.1%
same,"viability, T/C","second compound 0.01 µM, first compound 10 µM",45.5%
same,"viability, T/C",[5],110%
same,"viability, T/C",[6],114%
same,"viability, T/C","second compound 0.0316 µM, first compound 0.316 µM",105%
same,"viability, T/C","second compound 0.0316 µM, first compound 1 µM",115%
same,"viability, T/C","second compound 0.0316 µM, first compound 3.16 µM",99.9%
same,"viability, T/C","second compound 0.0316 µM, first compound 10 µM",54%
same,"viability, T/C",[7],111%
same,"viability, T/C",[8],106%
same,"viability, T/C","second compound 0.1 µM, first compound 0.316 µM",108%
same,"viability, T/C","second compound 0.1 µM, first compound 1 µM",107%
same,"viability, T/C","second compound 0.1 µM, first compound 3.16 µM",98.2%
same,"viability, T/C","second compound 0.1 µM, first compound 10 µM",50%
same,"viability, T/C",[9],103%
same,"viability, T/C",[10],106%
same,"viability, T/C","second compound 0.316 µM, first compound 0.316 µM",104%
same,"viability, T/C","second compound 0.316 µM, first compound 1 µM",108%
same,"viability, T/C","second compound 0.316 µM, first compound 3.16 µM",93.4%
same,"viability, T/C","second compound 0.316 µM, first compound 10 µM",48.5%
same,"viability, T/C",[11],104%
same,"viability, T/C",[12],94.9%
same,"viability, T/C","second compound 1 µM, first compound 0.316 µM",103%
same,"viability, T/C","second compound 1 µM, first compound 1 µM",117%
same,"viability, T/C","second compound 1 µM, first compound 3.16 µM",104%
same,"viability, T/C","second compound 1 µM, first compound 10 µM",47.7%
CC(C)n1nc(-c2ccc3oc(N)nc3c2)c2c(N)ncnc21 + C=CC(=O)N1CCN(c2nc(OCC3CCCN3C)nc3c(F)c(-c4nc(N)cc(C)c4C(F)(F)F)c(Cl)cc23)C(C)C1,IC50,second compound 0.00316 µM,> 0.1 µM
same,IC50,second compound 0.01 µM,> 0.1 µM
same,IC50,second compound 0.0316 µM,> 0.1 µM
same,IC50,second compound 0.1 µM,> 0.1 µM
same,IC50,second compound 0.316 µM,> 0.1 µM
same,IC50,second compound 1 µM,> 0.1 µM
same,"viability, T/C","second compound 0.00316 µM, first compound 0.000316 µM",107%
same,"viability, T/C","second compound 0.00316 µM, first compound 0.001 µM",109%
same,"viability, T/C","second compound 0.00316 µM, first compound 0.00316 µM",99.9%
same,"viability, T/C","second compound 0.00316 µM, first compound 0.01 µM",119%
same,"viability, T/C",[1],120%
same,"viability, T/C",[2],77.9%
same,"viability, T/C","second compound 0.01 µM, first compound 0.000316 µM",100%
same,"viability, T/C","second compound 0.01 µM, first compound 0.001 µM",111%
same,"viability, T/C","second compound 0.01 µM, first compound 0.00316 µM",107%
same,"viability, T/C","second compound 0.01 µM, first compound 0.01 µM",119%
same,"viability, T/C",[3],117%
same,"viability, T/C",[4],70.7%
same,"viability, T/C","second compound 0.0316 µM, first compound 0.000316 µM",105%
same,"viability, T/C","second compound 0.0316 µM, first compound 0.001 µM",109%
same,"viability, T/C","second compound 0.0316 µM, first compound 0.00316 µM",113%
same,"viability, T/C","second compound 0.0316 µM, first compound 0.01 µM",111%
same,"viability, T/C",[5],114%
same,"viability, T/C",[6],71.7%
same,"viability, T/C","second compound 0.1 µM, first compound 0.000316 µM",110%
same,"viability, T/C","second compound 0.1 µM, first compound 0.001 µM",100%
same,"viability, T/C","second compound 0.1 µM, first compound 0.00316 µM",111%
same,"viability, T/C","second compound 0.1 µM, first compound 0.01 µM",116%
same,"viability, T/C",[7],109%
same,"viability, T/C",[8],72.2%
same,"viability, T/C","second compound 0.316 µM, first compound 0.000316 µM",109%
same,"viability, T/C","second compound 0.316 µM, first compound 0.001 µM",108%
same,"viability, T/C","second compound 0.316 µM, first compound 0.00316 µM",111%
same,"viability, T/C","second compound 0.316 µM, first compound 0.01 µM",109%
same,"viability, T/C",[9],129%
same,"viability, T/C",[10],71.3%
same,"viability, T/C","second compound 1 µM, first compound 0.000316 µM",109%
same,"viability, T/C","second compound 1 µM, first compound 0.001 µM",99.6%
same,"viability, T/C","second compound 1 µM, first compound 0.00316 µM",118%
same,"viability, T/C","second compound 1 µM, first compound 0.01 µM",118%
same,"viability, T/C",[11],115%
same,"viability, T/C",[12],70%

# Reference: PubChem BioAssay AID2060898 (Molecular Pharmacology Branch, DTP, NCI, 2025)
